Where two headings read alike, the source gives them in different places.
How the values were obtained:
PSA = experiment: Screening SSIA by homogeneous PSA immunoassay; assay type: biochemical
Description: This example presents one method used for testing of candidate compounds for functionality as SSIA in assays of the present disclosure. Testing was conducted in a model screening immunoassay of the protein PSA. Mouse anti-PSA tests were run using a 96-well microtiter plate format. […] The plate was incubated at 37° C. for 10 minutes. A 5 μL aliquot of the test compound (various concentrations) was added to each well. Chemiluminescence was triggered by the addition of 100 μL of a solution of trigger solution A. The chemiluminescent flash was integrated for 5 seconds after the addition of the trigger solution using a Luminoskan Asent® plate luminometer, (Thermo Fischer Scientific, Inc., Waltham, Mass.).
It is desirable that the improvement factor be at least 2 (S5/S0≧ about 20-30) and more desirable that improvement factor be at least 5 (S5/S0≧ about 50), yet more desirable that S5/S0 be ≧100 in the present screen.

biotinylated HRP = molecular target: T1, biotinylated HRP (Armoracia rusticana, UniProt P00433); experiment: Model system for selection of SSIA (M280 btn-BSA-AK1-streptavidin particles + Btn-HRP:HRP); assay type: biochemical; conditions: for S/S0: Btn-HRP 0 ng/mL vs 0; for S/S0 / S1/S0 / S2/S0 / S3/S0 / S4/S0 / effect in the model system / utility as SSIA: SSIA 100 μM; for B-HRP0 light intensity: Btn-HRP 0 ng/mL; for B-HRP0 light intensity / B-HRP1 light intensity / B-HRP10 light intensity / B-HRP100 light intensity / B-HRP250 light intensity: total HRP 500 ng/mL, SSIA final 100 μM; for S1/S0: Btn-HRP 1 ng/mL vs 0; for B-HRP1 light intensity: Btn-HRP 1 ng/mL; for S2/S0: Btn-HRP 10 ng/mL vs 0; for B-HRP10 light intensity: Btn-HRP 10 ng/mL; for S3/S0: Btn-HRP 100 ng/mL vs 0; for B-HRP100 light intensity: Btn-HRP 100 ng/mL; for S4/S0: Btn-HRP 250 ng/mL vs 0; for B-HRP250 light intensity: Btn-HRP 250 ng/mL; for effect in the model system / utility as SSIA: conclusion in words
T1 construct: purchased Roche Diagnostics, Indianapolis, Ind., USA
T1 sequence (P00433 31-338 limits assumed): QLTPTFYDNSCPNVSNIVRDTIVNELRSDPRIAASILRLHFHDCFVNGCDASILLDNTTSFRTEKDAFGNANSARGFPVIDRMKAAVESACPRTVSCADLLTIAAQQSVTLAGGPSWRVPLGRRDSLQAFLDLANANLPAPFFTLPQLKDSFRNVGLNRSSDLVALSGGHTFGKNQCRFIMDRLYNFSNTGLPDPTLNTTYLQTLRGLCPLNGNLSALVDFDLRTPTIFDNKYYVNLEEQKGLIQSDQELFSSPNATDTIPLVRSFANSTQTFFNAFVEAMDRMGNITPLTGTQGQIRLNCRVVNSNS
Description: The model system uses a microparticle conjugated to BSA (bovine serum albumin) labeled with a […] and acridan ketenedithioacetal chemiluminescent label (AK1) as the chemiluminescent-labeled sbp, and biotinylated HRP as the activator-labeled specific binding pair. In the model system, varying amounts of Btn-HRP is added to the chemiluminescent-labeled specific binding pair at 0, 1, 10, 100 and 250 ng/mL. Additional unlabeled HRP is added to reach a total HRP of concentration of 500 ng/mL in each reaction mixture. The unlabeled HRP in combination with the activator-labeled sbp was provided to the chemiluminescent-labeled sbp microparticles to emulate sample. A compound for assessment as an SSIA was also added. This reaction mixture of the model system is then triggered by addition of trigger solution in a manner of assays of the present disclosure.
To prepare the chemiluminescent-labeled sbp on microparticles, Bovine Serum Albumin (BSA) was biotinylated with 4× molar excess of biotin-LC-sulfoNHS (Pierce Biotechnology Inc., Rockford, Ill., USA). Unbound reactants were removed via desalting or dialysis. The biotin-BSA was then reacted with a 5× molar excess of acridan ketenedithioacetal AK1 in 20 mM sodium phosphate pH 7.2: DMSO 75:25, v/v) followed by desalting in the same buffer. The dual labeled (biotin and AK1) BSA was then coupled with tosyl activated M-280 microparticles (Invitrogen Corporation, Carlsbad, Calif., USA) in a 0.1 M borate buffer pH 9.5 at a concentration of ca. 20 μg labeled BSA per mg of microparticles for 16-24 h at 40° C. After coupling the microparticles were stripped for 1 h at 40° C. with 0.2 M TRIS base, 2% SDS, pH ˜11. The stripping process was repeated one additional time. Microparticles were then suspended in a 0.1% BSA/TRIS buffered saline (BSA/TBS) buffer and streptavidin (SA) was added at approximately 15 μg SA per mg microparticles. Streptavidin was mixed with the microparticles for 45-50 min at room temperature. The microparticles were then washed three times and suspended in the same BSA/TBS.
HRP, (Roche Diagnostics, Indianapolis, Ind., USA) was biotinylated with 4× molar excess of biotin-LC-sulfoNHS (Pierce Biotechnology Inc., Rockford, Ill., USA). Unbound reactants were removed via desalting or dialysis.
Each SSIA compound for assessment was dissolved in Buffer II at a concentration at least 10× of final concentration of the reaction mixture (after the addition of the trigger solution)
Paramagnetic particles (PMP): (M280)-(btn-BSA-AK)-(Streptavidin);
Sample Emulator: B-HRP:HRP; 500 ng/mL total with titration of B-HRP:HRP at Total HRP concentration of 500 ng/mL, with Btn-HRP variations: 0, 1, 10, 100 and 250 ng/mL.
SSIA: According to tables below in BUFFER II targeted to give a final concentration of 100 μM.
Trigger solution A is defined above.
5 μl of 1 mg/ml of dual-labeled (biotin and AK1) BSA M280 particles were mixed with 45 μl of working concentration SSIA in Buffer II. The assay volume brought to […] by adding 15 μl of Buffer II. 15 μl of sample containing Btn-HRP:HRP at different ratios (The amount of biotinylated-HRP varied from 0, 1, 10, 100 and 250 ng/mL) was added. The reaction mixture was incubated for 30 min at 37° C., then 100 μL of trigger solution was added and the light intensity recorded. Total volume of reaction mixture, including trigger solution was […] with a final concentration of 100 μM of SSIA.

GM-CSF = tested on: GM-CSF
Description: The term “GM-CSF” refers to granulocyte macrophage […], a protein necessary for the survival, proliferation and differentiation of hematopoietic progenitor cells, having human gene map locus 5q31.1. A variety of antibodies to GM-CSF are commercially available.
Heterogeneous phase assays directed to GM-CSF were conducted using a LodeStars PMP labeled with AK4 and biotin/streptavidin (AK-PMP-SA) as described in Example 3, an antibody-biotin conjugate and an antibody-HRP conjugate binding to GM-CSF. The antibody-HRP conjugate, (antiGM-CSF-HRP) was purchased from Antigenix.
The antibody-biotin (antiGM-CSF-biotin) conjugate was synthesized by adding a 25-fold molar excess (9.28 μg) of sulfo NHS-biotin (Pierce), dissolved in DMF (1 mg/mL), to 0.1 mg of antibody (Antigenix) in 0.1 mL of 0.1 M sodium borate pH 8.25. After a 60 min incubation at ambient temperature, the reaction was left to incubate overnight at 4° C. The biotinylated antibody was purified over a Sephadex G-25 column (GE Healthcare), equilibrated in PBS, pH 7.4, following the manufacturers instructions.
In order to conduct the heterogeneous assay, 30 μL of an antiGM-CSF-Biotin conjugate solution (0.75 μg/mL, 22.5 ng), 30 μL of calibrator solution having GM-CSF in the range 0-30,000 pg/mL, 30 μL of antiGM-CSF-HRP conjugate (2.25 μg/mL, 67 ng), and 30 μL of AK-streptavidin magnetic particle solution (10 μg of particles) were pipetted into the wells of a white microtiter plate. The plate was incubated for 60 minutes at room temperature. 5 μL of a 2-aminophenol solution (11 mM, 55 nmoles) was added as SSIA. The plate was placed into an injection plate luminometer. 100 μL of trigger solution A was added by the luminometer and the chemiluminescent signal was read for 5 seconds.

[1] = 2-aminophenol as SSIA, GM-CSF 0 pg/mL
[2] = 2-aminophenol as SSIA, GM-CSF 1 pg/mL
[3] = 2-aminophenol as SSIA, GM-CSF 3 pg/mL
[4] = 2-aminophenol as SSIA, GM-CSF 5 pg/mL
[5] = 2-aminophenol as SSIA, GM-CSF 10 pg/mL
[6] = 2-aminophenol as SSIA, GM-CSF 100 pg/mL
[7] = 2-aminophenol as SSIA, GM-CSF 1000 pg/mL
[8] = 2-aminophenol as SSIA, GM-CSF 10000 pg/mL
[9] = PSA 129 ng/mL (S5) vs zero, test compound final conc. 122 uM
[10] = PSA 129 ng/mL (S5) vs zero, test compound final conc. 0.122 mM

`Cn1ccnc1S` gave an S5/S0 (PSA; PSA 129 ng/mL (S5) vs zero, test compound final conc. 36.7 mM) of 102.
With `Nc1ncc[nH]1` the S5/S0 (PSA; PSA 129 ng/mL (S5) vs zero, test compound final conc. 24.4 mM) was 14.
`Nc1ccc2[nH]ncc2c1` gave an S5/S0 (PSA; PSA 129 ng/mL (S5) vs zero, test compound final conc. 12.2 mM) of 10.
With `Nc1ccccc1O` [2-aminophenol] the S/S0 (biotinylated HRP) was 1, the B-HRP0 light intensity (biotinylated HRP) was 65 and the S1/S0 (biotinylated HRP) was 5.5. For the same compound, the B-HRP1 light intensity (biotinylated HRP) was 356, the S2/S0 (biotinylated HRP) was 132.8 and the B-HRP10 light intensity (biotinylated HRP) was 8,632. The S3/S0 (biotinylated HRP) was 32195.4, the B-HRP100 light intensity (biotinylated HRP) was 2,092,703 and the S4/S0 (biotinylated HRP) was 61672.1. The B-HRP250 light intensity (biotinylated HRP) was 4,008,689, the “effect in the model system / utility as SSIA” value (biotinylated HRP) was “demonstrating utility as SSIA” and the “Mean RLU” value (GM-CSF; 2-aminophenol 55 nmoles as SSIA, GM-CSF 30000 pg/mL) was 2180 RLU. For the same compound, the “Mean RLU” value (GM-CSF; [1]) was 0.7805 RLU, the S/S0 (GM-CSF; [1]) was 1.000 and the “Mean RLU” value (GM-CSF; [2]) was 0.8045 RLU. The S/S0 (GM-CSF; [2]) was 1.030, the “Mean RLU” value (GM-CSF; [3]) was 0.8865 RLU and the S/S0 (GM-CSF; [3]) was 1.135. For the same compound, the “Mean RLU” value (GM-CSF; [4]) was 0.9205 RLU, the S/S0 (GM-CSF; [4]) was 1.179 and the “Mean RLU” value (GM-CSF; [5]) was 1.284 RLU. The S/S0 (GM-CSF; [5]) was 1.645, the “Mean RLU” value (GM-CSF; [6]) was 5.2805 RLU and the S/S0 (GM-CSF; [6]) was 6.765. The “Mean RLU” value (GM-CSF; [7]) was 47.89 RLU, the S/S0 (GM-CSF; [7]) was 61.358 and the “Mean RLU” value (GM-CSF; [8]) was 580.6 RLU. It also gave a S/S0 (GM-CSF; [8]) of 743.882 and a S/S0 (GM-CSF; 2-aminophenol as SSIA, GM-CSF 30000 pg/mL) of 2793.081.
Work on `O[C@@H](CS)[C@@H](O)CS` [DTT] yielded an S5/S0 (PSA; PSA 129 ng/mL (S5) vs zero, test compound final conc. 72 uM) of 20.
Compound `OCCO` [Ethylene glycol] has an S5/S0 (PSA) of 14.
For `N[C@@H](CCC(=O)N[C@@H](CS)C(=O)NCC(=O)O)C(=O)O` [Glutathione], the S/S0 (biotinylated HRP) was 1, the B-HRP0 light intensity (biotinylated HRP) was 26,977 and the S1/S0 (biotinylated HRP) was 2.1. For the same compound, the B-HRP1 light intensity (biotinylated HRP) was 55,719, the S2/S0 (biotinylated HRP) was 92 and the B-HRP10 light intensity (biotinylated HRP) was 2,480,764. The S3/S0 (biotinylated HRP) was 323.7, the B-HRP100 light intensity (biotinylated HRP) was 8,733,068 and the S4/S0 (biotinylated HRP) was 369.4. The B-HRP250 light intensity (biotinylated HRP) was 9,965,235, the “effect in the model system / utility as SSIA” value (biotinylated HRP) was “no effect” and the S5/S0 (PSA; [9]) was 77.
For `N[C@@H](CS)C(=O)O` [L-Cysteine], the S5/S0 (PSA; [9]) was 22.
With `NN` [NH2NH2] the S5/S0 (PSA; PSA 129 ng/mL (S5) vs zero, test compound final conc. 244 uM) was 15.
For `O=S([O-])[O-].[Na+].[Na+]` [Na2SO3], the S5/S0 (PSA; PSA 129 ng/mL (S5) vs zero, test compound final conc. 15 uM) was 59.
`[N-]=[N+]=[N-].[Na+]` [NaN3] gave an S5/S0 (PSA; PSA 129 ng/mL (S5) vs zero, test compound final conc. 34 uM) of 19.
Compound `Cc1cc(-c2cc(C)c(N)c(C)c2)cc(C)c1N` [TMB] has an S5/S0 (PSA; PSA 129 ng/mL (S5) vs zero, test compound final conc. 61 uM) of 20.
Work on `O=C1O[C@H]([C@@H](O)CO)C([O-])=C1O.[Na+]` [ascorbate sodium salt (ascorbate anion), ascorbate sodium salt] yielded an S5/S0 (PSA; [10]) of 495.
Compound `Nc1ccccc1O` [drawing 47] has an S5/S0 (PSA; [10]) of 649.
In the case of `O=C1O[C@H]([C@@H](O)CO)C(O)=C1O` [drawing 64], the S5/S0 (PSA; [9]) is reported as 10.3.
In the case of `O=C1O[C@H]([C@@H](O)CO)C(O)=C1O` [drawing 72], the S5/S0 (PSA; [10]) is reported as 423.
In the case of `Oc1ccc(O)c(Cl)c1` [drawing 75], the S5/S0 (PSA; PSA 129 ng/mL (S5) vs zero, test compound final conc. 0.111 mM) is reported as 229.
`Oc1ccc(Cl)cc1O` [drawing 77] showed an S5/S0 (PSA; PSA 129 ng/mL (S5) vs zero, test compound final conc. 0.244 mM) of 409.
Work on `Nc1ccc(C(=O)O)cc1O` [drawing 79] yielded an S5/S0 (PSA; [10]) of 153.
